According to BindingDB's records for doi:10.1021/jm030317k (Astrazeneca, 2004):
One block for each molecule: values may come before it.

Columns and labels:
[1] = target: Fibroblast growth factor receptor 1 (Homo sapiens, UniProt P11362); assay: In Vitro Src Kinase Inhibition Test
Text: (§1) This assay determines the ability of test compounds to inhibit Src kinase activity that catalyzes the transfer of the terminal phosphate to the immobilized poly (Glu,Tyr) substrate detected using anti-phosphotyrosine monoclonal antibody conjugated to alkaline phosphatase. IC50 values for compound enzyme inhibition were obtained using KC3 Kineticalc software (Bio-Tek Instruments) following subtraction of the blank values.

[2] = target: Vascular endothelial growth factor receptor 1 (Homo sapiens, UniProt P17948); assay: In Vitro Src Kinase Inhibition Test
Vascular endothelial growth factor receptor 1, sequence (P17948 whole entry): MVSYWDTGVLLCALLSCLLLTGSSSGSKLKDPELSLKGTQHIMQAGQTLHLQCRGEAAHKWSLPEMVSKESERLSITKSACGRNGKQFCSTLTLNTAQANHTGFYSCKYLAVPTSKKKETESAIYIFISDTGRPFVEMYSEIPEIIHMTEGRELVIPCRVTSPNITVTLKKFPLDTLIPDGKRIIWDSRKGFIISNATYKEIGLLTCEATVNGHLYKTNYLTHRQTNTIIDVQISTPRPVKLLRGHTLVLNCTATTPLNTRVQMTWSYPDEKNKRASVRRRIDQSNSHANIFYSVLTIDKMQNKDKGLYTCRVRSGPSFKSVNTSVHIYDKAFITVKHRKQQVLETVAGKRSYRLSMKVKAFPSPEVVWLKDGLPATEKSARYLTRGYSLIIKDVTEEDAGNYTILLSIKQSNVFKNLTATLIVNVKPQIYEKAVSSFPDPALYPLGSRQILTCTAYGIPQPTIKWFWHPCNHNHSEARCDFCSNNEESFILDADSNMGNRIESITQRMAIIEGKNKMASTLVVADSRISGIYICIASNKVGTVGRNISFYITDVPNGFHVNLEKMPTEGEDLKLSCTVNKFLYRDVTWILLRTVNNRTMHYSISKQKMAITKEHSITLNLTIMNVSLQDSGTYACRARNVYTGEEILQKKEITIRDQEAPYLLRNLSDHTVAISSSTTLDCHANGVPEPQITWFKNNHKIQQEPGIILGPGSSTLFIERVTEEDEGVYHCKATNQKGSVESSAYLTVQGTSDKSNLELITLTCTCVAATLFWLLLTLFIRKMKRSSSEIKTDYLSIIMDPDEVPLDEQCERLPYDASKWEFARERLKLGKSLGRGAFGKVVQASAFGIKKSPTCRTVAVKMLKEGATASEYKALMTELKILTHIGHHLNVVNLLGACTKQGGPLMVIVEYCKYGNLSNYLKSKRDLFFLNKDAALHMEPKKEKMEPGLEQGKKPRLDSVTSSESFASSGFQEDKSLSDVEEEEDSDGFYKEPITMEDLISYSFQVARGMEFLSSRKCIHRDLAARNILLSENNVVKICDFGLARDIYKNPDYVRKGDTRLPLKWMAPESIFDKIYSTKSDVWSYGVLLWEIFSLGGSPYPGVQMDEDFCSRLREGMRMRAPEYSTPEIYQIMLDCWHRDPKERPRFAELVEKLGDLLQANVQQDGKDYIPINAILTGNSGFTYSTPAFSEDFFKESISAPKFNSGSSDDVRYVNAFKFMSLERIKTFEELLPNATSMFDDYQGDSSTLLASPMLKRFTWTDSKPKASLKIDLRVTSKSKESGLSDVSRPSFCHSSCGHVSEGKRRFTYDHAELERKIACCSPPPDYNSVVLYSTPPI
Text: as §1

[3] = target: Proto-oncogene tyrosine-protein kinase Src (Homo sapiens, UniProt P12931); assay: In Vitro Src Kinase Inhibition Test; details: pH 7.4; 22 °C
Proto-oncogene tyrosine-protein kinase Src, sequence (P12931 2-536 limits assumed): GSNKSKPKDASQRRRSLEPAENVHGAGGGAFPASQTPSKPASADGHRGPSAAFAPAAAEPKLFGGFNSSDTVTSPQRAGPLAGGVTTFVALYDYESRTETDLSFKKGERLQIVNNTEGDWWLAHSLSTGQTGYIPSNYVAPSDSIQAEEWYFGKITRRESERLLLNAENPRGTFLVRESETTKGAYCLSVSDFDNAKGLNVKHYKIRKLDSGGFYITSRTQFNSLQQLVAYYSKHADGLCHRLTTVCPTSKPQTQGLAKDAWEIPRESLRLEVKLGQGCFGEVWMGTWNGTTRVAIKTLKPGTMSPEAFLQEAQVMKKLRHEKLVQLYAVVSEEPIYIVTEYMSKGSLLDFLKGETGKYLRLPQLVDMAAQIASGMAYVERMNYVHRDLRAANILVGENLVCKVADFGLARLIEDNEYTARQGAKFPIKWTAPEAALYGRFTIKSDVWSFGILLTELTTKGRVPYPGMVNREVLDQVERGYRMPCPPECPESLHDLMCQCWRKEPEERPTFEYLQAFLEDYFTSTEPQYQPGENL
Text: as §1

[4] = target: T1, Vascular endothelial growth factor receptor 2 (Homo sapiens, UniProt P35968); assay: VEGF-R Kinase Inhibition Assay; details: 25 °C
T1 sequence (P35968 whole entry): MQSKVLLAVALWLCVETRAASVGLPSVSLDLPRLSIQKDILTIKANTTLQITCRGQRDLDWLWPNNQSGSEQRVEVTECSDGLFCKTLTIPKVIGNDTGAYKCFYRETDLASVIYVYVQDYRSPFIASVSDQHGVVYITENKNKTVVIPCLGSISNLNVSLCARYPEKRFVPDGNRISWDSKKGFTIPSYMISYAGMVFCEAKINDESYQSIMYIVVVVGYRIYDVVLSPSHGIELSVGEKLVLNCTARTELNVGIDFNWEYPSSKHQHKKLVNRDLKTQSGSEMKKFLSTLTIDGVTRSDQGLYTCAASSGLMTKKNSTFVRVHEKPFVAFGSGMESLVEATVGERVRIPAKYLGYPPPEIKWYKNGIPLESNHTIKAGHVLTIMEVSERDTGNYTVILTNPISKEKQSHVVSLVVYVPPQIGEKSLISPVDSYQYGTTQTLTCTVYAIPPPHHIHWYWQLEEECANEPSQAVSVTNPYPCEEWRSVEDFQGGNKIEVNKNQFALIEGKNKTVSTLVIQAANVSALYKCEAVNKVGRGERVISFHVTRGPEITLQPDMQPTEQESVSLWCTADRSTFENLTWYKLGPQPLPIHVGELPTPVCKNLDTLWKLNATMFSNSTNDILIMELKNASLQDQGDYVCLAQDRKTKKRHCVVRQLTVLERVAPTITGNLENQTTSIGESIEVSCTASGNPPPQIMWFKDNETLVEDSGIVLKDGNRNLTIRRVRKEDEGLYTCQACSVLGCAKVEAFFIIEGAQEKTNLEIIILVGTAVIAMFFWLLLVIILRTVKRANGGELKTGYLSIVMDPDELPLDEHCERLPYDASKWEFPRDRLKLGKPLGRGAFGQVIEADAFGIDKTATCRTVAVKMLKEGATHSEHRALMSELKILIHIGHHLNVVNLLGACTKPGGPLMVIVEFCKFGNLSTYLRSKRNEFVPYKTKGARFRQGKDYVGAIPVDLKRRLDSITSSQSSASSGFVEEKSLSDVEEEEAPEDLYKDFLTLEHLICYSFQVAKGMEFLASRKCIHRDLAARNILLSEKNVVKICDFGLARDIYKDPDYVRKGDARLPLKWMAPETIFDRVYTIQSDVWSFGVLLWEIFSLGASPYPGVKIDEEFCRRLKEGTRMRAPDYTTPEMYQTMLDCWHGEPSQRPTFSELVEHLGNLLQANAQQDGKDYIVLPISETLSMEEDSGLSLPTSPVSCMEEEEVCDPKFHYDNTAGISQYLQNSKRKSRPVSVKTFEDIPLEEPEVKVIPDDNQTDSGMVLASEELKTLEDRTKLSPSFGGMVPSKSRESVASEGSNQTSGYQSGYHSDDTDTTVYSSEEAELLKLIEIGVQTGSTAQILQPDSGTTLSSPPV
Protocol: An ELISA assay was used to determine the ability of inhibitor to inhibit VEGF-RRTK activity. The compounds were incubated with enzyme 20 min at room temperature, with 2uM ATP in 96-well plates coated with a poly(Glu, Ala, Tyr) 6:3:1 random copolymer substrate. Phosphorylated tyrosine was then detected by sequential in cubation with anti-phosphotyrosine antibody. IC50 data were interpolated by nonlinear regression using Microcal Origin software.

[5] = target: T1, Vascular endothelial growth factor receptor 2; assay: In Vitro Src Kinase Inhibition Test
Text: as §1

Fibroblast growth factor receptor 1, sequence (P11362 whole entry): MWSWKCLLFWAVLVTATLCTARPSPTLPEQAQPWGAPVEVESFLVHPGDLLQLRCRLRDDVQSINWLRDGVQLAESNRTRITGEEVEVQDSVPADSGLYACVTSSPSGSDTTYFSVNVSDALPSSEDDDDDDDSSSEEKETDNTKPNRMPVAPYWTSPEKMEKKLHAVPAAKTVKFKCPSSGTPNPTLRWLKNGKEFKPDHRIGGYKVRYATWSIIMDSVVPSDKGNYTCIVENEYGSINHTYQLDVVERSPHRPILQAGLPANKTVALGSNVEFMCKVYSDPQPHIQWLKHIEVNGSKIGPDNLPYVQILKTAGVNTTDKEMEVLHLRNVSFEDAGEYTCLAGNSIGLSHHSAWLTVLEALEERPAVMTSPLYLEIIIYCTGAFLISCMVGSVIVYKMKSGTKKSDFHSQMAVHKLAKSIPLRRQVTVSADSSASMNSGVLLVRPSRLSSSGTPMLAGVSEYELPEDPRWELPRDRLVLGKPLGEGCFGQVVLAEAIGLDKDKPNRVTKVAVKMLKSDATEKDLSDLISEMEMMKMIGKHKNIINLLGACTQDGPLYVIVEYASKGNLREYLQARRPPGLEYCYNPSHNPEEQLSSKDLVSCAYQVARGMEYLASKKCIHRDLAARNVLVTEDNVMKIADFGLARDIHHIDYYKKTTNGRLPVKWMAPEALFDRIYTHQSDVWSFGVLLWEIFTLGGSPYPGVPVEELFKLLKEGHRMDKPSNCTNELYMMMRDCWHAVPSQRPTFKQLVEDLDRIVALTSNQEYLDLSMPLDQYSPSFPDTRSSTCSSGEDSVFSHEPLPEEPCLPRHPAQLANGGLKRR

IC50 [1]: > 100 µM
IC50 [2]: > 100 µM
SMILES: COc1cc2c(Nc3c(Cl)ccc4c3OCO4)ncnc2cc1OCc1ccnc(C#N)c1 [4-[({4-[(5-chloro-2H-1,3-benzodioxol-4-yl)amino]-6-methoxyquinazolin-7-yl}oxy)methyl]pyridine-2-carbonitrile]

IC50 [3]: 0.01 µM
IC50 [4]: 0.67 µM
SMILES: COc1ccc(Cl)c(Nc2ncnc3cc(OCC4CCN(C)CC4)c(OC)cc23)c1 [AZD0530 analogue 35]

IC50 [5]: 21.7 µM
SMILES: COc1cc2c(Nc3c(Cl)ccc4c3OCO4)ncnc2cc1OCCCN1CCCCC1 [BMCL182776 Compound 1]
